Residues, ends and D or L forms follow the SMILES beside them. *: point of attachment. 5TAMRA = CN(C)c1ccc2c(c1)Oc1cc(N(C)C)ccc1C21OC(=O)c2cc(C(=O)*)ccc21 Where only a bound is given, the exact number is not on record here.

Data set [1] deals with wild-type mice. The experiment in a line: Tolerability in NP42T-treated wild-type mice. The note with it: week 2 to 11. Format: in vivo, mouse.
Procedure: For animal experimentation, a cohort of 30 females was divided into four groups (WT treated with empty NP (n = 5); WT treated with NP42T (n = 8); R6/2 treated with empty NP (n = 8); R6/2 treated with NP42T (n = 9)). Administrations were performed five days a week, at the same time of the day, starting in 2-week-old mice. The treatment was performed until the mice were sacrificed (at week 11). NP42T peptide (600 μg/ml/kg) was administrated twice a day per mucosa, with two buccal injections until the mice were 4 week old, and via rectal and buccal injections for older animals older.
The conditions of data set [2]: mice brain soluble extract, 15 μg peptide, incubation 0, 1, 3 and 6 h, MALDI-MS.
Source text: MALDI MS and MS/MS analysis: Spectra acquisition has been performed using the 4800 Plus MALDI TOF/TOF^TM mass spectrometer (ABSciex) controlled by the 4000 Series Explorer^TM. MS spectra were acquired in a reflector positive mode (mass range: m/z 700–4000, laser intensity set at 50% and 3000 total laser shots per spectrum, MS resolution ≥ 12000–17000). MS/MS precursor was selected manually with an absolute mass window of 1 Da and each MS/MS spectrum is the result of 1000 total laser shots with a laser intensity set at 50% and a MS/MS resolution ≥ 2000–5000. The fragmentation was performed at collision energy of 2 kV and a collision air pressure set at 10^−6 Torr.
Data set [3] relates to brain of wild-type C57BL/6 J mice. Put plainly: Brain targeting after buccal/rectal NP42T (MALDI Imaging Mass Spectrometry). The note with it: NP42T 210 μg, four buccal and four rectal administrations, 3 h, MALDI IMS, two mice. It is filed as in vivo, mouse. As for the experimental part: For MALDI analysis, wild-type C57BL/6 J mice have been injected either by ICV (2.1 μg), or treated with empty NP, or with NP42T (210 μg) microemulsions. For NP and NP42T, four buccal and four rectal administrations (1 ml/kg) have been performed, spaced by 30 minutes to ensure mucosa internalization. Two mice have been treated for each condition and sacrificed 3 h after the injections.
Tissue preparation and MALDI imaging analysis: Frozen brain sections were cut in 15 μm slices using an HM 550 OVPD cryostat (Fisher Scientific, Illkirch, France), set at −20°C, mounted on ITO coated conductive glass slides and allowed to thaw and desiccate in a vacuum desiccator. Tissue sections were then coated manually with a 10 mg/ml α-cyano-4-hydroxycinnamic acid dissolved in 50% acetonitrile (ACN) and 0.1% trifluoroacetic acid (TFA).
MALDI imaging was performed using the 4800 Plus MALDI TOF/TOF^TM Analyzer (AB Sciex). Image acquisition was achieved using the 4800 imaging tool software (MSI imaging). […]
The two dimensional ion image of the tissue section was analyzed using Tissue View^TM software (Applied Biosystems/MDS analytical technologies). A colour scale representing signal intensity is exported from Tissue View^TM software to provide semi quantitative information.

In data set [4] the test system is HeLa cells. Put plainly: Internalization of exogenous peptide into HeLa cells. Format: cell-based, human. Particulars: synthetic TAMRA end-labelled peptide in culture medium, anti-TAMRA immunostaining, confocal. As for the experimental part:
(§1) HeLa cells were grown and maintained in DMEM medium (Gibco) supplemented with 10% fetal calf serum and glutamine. HeLa cells were grown in 6 well plates, and pDdest53-GFP-hHtt^171aa-136Q (0.75 μg) was transfected with JetPei reagent (Qbiogene). Equal amounts of pcDNA-Cherry-P42 or control vector were added for each transfection to level the total amount of plasmid DNA. To test the internalization of exogenous peptide, synthesized TAMRA-P42-TAT was added at the same time as pDest53-GFP-hHtt^171aa-Q136 transfection, at different concentrations (0, 0.5, 1, 5, 10 or 20 μM). Cells were incubated with plasmid and peptide for 12 h. Then the medium was washed twice with PBS, the cells trypsinized, and grown on a coverslip with new DMEM medium for 6 h. This step was necessary to eliminate the peptide that crystallizes on the well. Eventually, cells were fixed with 4% paraformaldehyde and immunostained for microscopic analysis. To observe the internalization of the peptide TAMRA-P42-TAT, the signal was amplified by anti-TAMRA immunostaining (1:500- Invitrogen). Nuclei were counterstained with DAPI (4′, 6 diamino-2-phenylindole). The pictures were taken with a confocal laser scanning microscope model LSM780 (Carl Zeiss).

The subject of data set [5] is brain of wild-type C57BL/6 J mice. The experiment in a line: Brain distribution of TAMRA-P42-TAT after ICV injection. Format: in vivo, mouse. As for the experimental part: To test the stability of the peptide in the brain, single intracerebroventricular (ICV) injection of peptides was performed in the right ventricle of C57BL/6 mice as described in [15]. 5 μg or 1 μg of TAMRA-P42-TAT were stereotaxically injected into the right lateral ventricle (coordinates 1 mm right lateral to bregma and 3 mm ventral to the skull surface) of C57BL/6 J mice using a 10 μl Hamilton syringe at a rate of 0.2 μl to 1 μl/min. As a control, saline was injected in the same volume and at the same rate. […]
TAMRA-P42-TAT injected mice were also immunostained with rabbit monoclonal anti-DARPP32 (MAb2306 - Cell Signaling Technology - 1: 1600), secondary detected by Alexa 488 anti-rabbit (1: 2000) to label the striatum, and with mouse monoclonal anti-NeuN (MAB377 – Millipore - 1: 1000), secondary detected by Dye light blue anti-mouse (1: 500), as a neuronal marker.

Data set [6] deals with HeLa cells. Put plainly: MTT test of HeLa cell survival. It is filed as cell-based, human. Particulars: large excess of peptide, data not shown. On the technique in general: Tetrazolium dyes change colour on reduction, which living cells bring about.
Data set [7] has as its system flies expressing hHtt exon1 with expanded polyQ. The note with it: cited from earlier work. The text has this:
Most research undertaken to find a cure for HD focus on the mutated allele (trying to reduce its expression), or on the polyQ stretch that is responsible for aggregation, but that is also present in other neurodegenerative diseases. Our approach is based on the observation that the ratio between normal and mutant Huntingtin is a crucial factor in the onset and progression of the disease. In a previous work, we confirmed the protective role of wild-type N-terminus Htt. We further screened human hHtt, for peptides able to prevent polyQ-hHtt aggregation i ... || The efficient rescue supported by P42 administration represents one of the best therapeutic effects described so far. Therapeutic research currently targets mutant Htt at transcriptional or post-translational level. The recent works in RNA interference or ASO strategies attempt to reduce the expression of the mutant transcript. Despite recent progress, the limitation of this approach lays in the effects on the wild-type allele and the aggravation of the loss of function effects. Biochemical molecules and intrabodies have also been designed against the protein, in order to target abnorma ...

The subject of data set [8] is GFP-hHtt^171aa-Q136 aggregation. The experiment in a line: polyQ-hHtt aggregation in transfected HeLa cells (microscopy). Particulars: HeLa cells co-transfected with GFP-hHtt171aa-Q136 and vector expressing Cherry-tagged peptide, vs empty vector. It is filed as cell-based, human. On the procedure: as §1

Take `CC[C@H](C)[C@H](NC(=O)[C@H](CC(=O)O)NC(=O)[C@H](Cc1c[nH]cn1)NC(=O)CNC(=O)[C@H](C)NC(=O)[C@H](CO)NC(=O)CNC(=O)[C@@H]1CCCN1C(=O)[C@@H](NC(=O)[C@H](CO)NC(=O)[C@@H](NC(=O)CNC(=O)[C@H](CO)NC(=O)[C@H](CO)NC(=O)[C@H](C)NC(=O)[C@H](C)N)C(C)C)[C@@H](C)O)C(=O)N[C@H](C(=O)N[C@H](C(=O)N[C@@H](CCC(=O)O)C(=O)N[C@@H](CCC(N)=O)C(=O)N1CCC[C@H]1C(=O)N[C@@H](CCCNC(=N)N)C(=O)N[C@@H](CO)C(=O)NCC(=O)NCC(=O)N[C@@H](Cc1ccc(O)cc1)C(=O)NCC(=O)N[C@@H](CCCNC(=N)N)C(=O)N[C@@H](CCCCN)C(=O)N[C@@H](CCCCN)C(=O)N[C@@H](CCCNC(=N)N)C(=O)N[C@@H](CCCNC(=N)N)C(=O)N[C@@H](CCC(N)=O)C(=O)N[C@@H](CCCNC(=N)N)C(=O)N[C@@H](CCCNC(=N)N)C(=O)N[C@@H](CCCNC(=N)N)C(=O)O)[C@@H](C)O)[C@@H](C)CC` [P42-TAT] (H-AASSGVSTPGSAGHDIITEQPRSGGYGRKKRRQRRR-OH): the “toxicity noticed during the study” value in data set [1] was “no toxicity”. Also, in data set [2], the “time until full length peptide was degraded” value was no more than 1 h. In addition, the “presence in the brain after Aonys administration” value in data set [3] is reported as “able to reach the brain”.

Turning to `CC[C@H](C)[C@H](NC(=O)[C@H](CC(=O)O)NC(=O)[C@H](Cc1c[nH]cn1)NC(=O)CNC(=O)[C@H](C)NC(=O)[C@H](CO)NC(=O)CNC(=O)[C@@H]1CCCN1C(=O)[C@@H](NC(=O)[C@H](CO)NC(=O)[C@@H](NC(=O)CNC(=O)[C@H](CO)NC(=O)[C@H](CO)NC(=O)[C@H](C)NC(=O)[C@H](C)NC(=O)c1ccc2c(c1)C(=O)OC21c2ccc(N(C)C)cc2Oc2cc(N(C)C)ccc21)C(C)C)[C@@H](C)O)C(=O)N[C@H](C(=O)N[C@H](C(=O)N[C@@H](CCC(=O)O)C(=O)N[C@@H](CCC(N)=O)C(=O)N1CCC[C@H]1C(=O)N[C@@H](CCCNC(=N)N)C(=O)N[C@@H](CO)C(=O)NCC(=O)NCC(=O)N[C@@H](Cc1ccc(O)cc1)C(=O)NCC(=O)N[C@@H](CCCNC(=N)N)C(=O)N[C@@H](CCCCN)C(=O)N[C@@H](CCCCN)C(=O)N[C@@H](CCCNC(=N)N)C(=O)N[C@@H](CCCNC(=N)N)C(=O)N[C@@H](CCC(N)=O)C(=O)N[C@@H](CCCNC(=N)N)C(=O)N[C@@H](CCCNC(=N)N)C(=O)N[C@@H](CCCNC(=N)N)C(=O)O)[C@@H](C)O)[C@@H](C)CC` [TAMRA-P42-TAT] (5TAMRA-AASSGVSTPGSAGHDIITEQPRSGGYGRKKRRQRRR-OH; N-terminus and C-terminus assumed), in data set [4], the “uptake into cultured cells” value is on record as “taken up by almost all the cells”. Moreover, the “detection in brain 24 hrs after ICV injection” value in data set [5] (C57BL/6 J mice, ICV 5 μg or 1 μg, 24 hrs, data not shown, n = 12) is “still detected”. The “distribution in the striatum after ICV injection” value in data set [5] (wild-type C57BL/6 J mice, ICV, sacrificed 3 hours after injection, TAMRA signal, DARPP32/NeuN co-staining) is recorded as “largely diffusing within the neurons”. Besides, in data set [6], the “IC50 on HeLa cell survival (MTT test)” value is “could not be measured”.

As for `CC[C@H](C)[C@H](NC(=O)[C@H](CC(=O)O)NC(=O)[C@H](Cc1c[nH]cn1)NC(=O)CNC(=O)[C@H](C)NC(=O)[C@H](CO)NC(=O)CN)C(=O)N[C@H](C(=O)N[C@H](C(=O)N[C@@H](CCC(=O)O)C(=O)N[C@@H](CCC(N)=O)C(=O)N1CCC[C@H]1C(=O)N[C@@H](CCCNC(=N)N)C(=O)N[C@@H](CO)C(=O)NCC(=O)NCC(=O)N[C@@H](Cc1ccc(O)cc1)C(=O)NCC(=O)O)[C@@H](C)O)[C@@H](C)CC` [m/z 1801.84 derivative] (H-GSAGHDIITEQPRSGGYG-OH), the “presence in the brain after Aonys administration” value in data set [3] is “still present in the brain”.

“P42: 23aa peptide lying in the N-terminus (position 480–502 aa) of normal human Htt”: the “eye degeneration of flies expressing hHtt exon1 with expanded polyQ” value in data set [7] (Drosophila model of HD) is given as “able to prevent eye degeneration”. For the same compound, the effects on lifespan result in data set [7] is listed as “partial”. In addition, in data set [8], the “rescue of GFP-Htt^171aa-Q136 aggregation” value is “completely rescue”.

Source of the values: publication PMC4149238, “Systemic delivery of P42 peptide: a new weapon to fight Huntington’s disease” (Acta Neuropathologica Communications, 2014).
